Test results from patent US8952024B2, “Herbicidal pyrimidone derivatives” (E I du Pont de Nemours and Company, priority 2009, dated 2015).
Like-named read-outs stand apart in the source and are kept apart here.

How the values were obtained:
Assay in all cases: Test B pre-/postemergence plant response
Type in all cases: in vivo
[1] = system: lambsquarters (Chenopodium album); settings: Preemergence
How it was run: (§1)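 Greenhouse herbicide screen. Pre- and postemergence (1- to 4-leaf) spray of compound in solvent/surfactant mixture; loam–sand soil for pre, peat/vermiculite medium for post. Visual control rating 0–100 at 13 to 15 days after treatment.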

[2] = system: large crabgrass (Digitaria sanguinalis); settings: for pest or weed control at 31 g/ha: 31 g ai/ha; for pest or weed control at 125 g/ha: 125 g ai/ha
How it was run: as §1

[3] = system: pigweed (Amaranthus retroflexus); settings: for pest or weed control at 31 g/ha: 31 g ai/ha; for pest or weed control at 125 g/ha: 125 g ai/ha
How it was run: as §1

[4] = system: ragweed (common ragweed, Ambrosia elatior); settings: for pest or weed control at 125 g/ha: 125 g ai/ha
How it was run: as §1

[5] = system: soybean (Glycine max); settings: for plant injury at 125 g/ha: 125 g ai/ha
How it was run: as §1

[6] = system: velvetleaf (Abutilon theophrasti); settings: for pest or weed control at 125 g/ha: 125 g ai/ha
How it was run: as §1

[7] = system: wheat (Triticum aestivum); settings: for plant injury at 125 g/ha: 125 g ai/ha
How it was run: as §1

[8] = system: wild oat (Avena fatua); settings: for pest or weed control at 31 g/ha: 31 g ai/ha; for pest or weed control at 125 g/ha: 125 g ai/ha
How it was run: as §1

[9] = system: woolly cupgrass (Eriochloa villosa); settings: for pest or weed control at 31 g/ha: 31 g ai/ha; for pest or weed control at 125 g/ha: 125 g ai/ha
How it was run: as §1

[10] = system: yellow nutsedge (Cyperus esculentus); settings: for pest or weed control at 31 g/ha: 31 g ai/ha; for pest or weed control at 125 g/ha: 125 g ai/ha
How it was run: as §1

[11] = 62 g ai/ha, postemergence, 0 is no effect, 100 is complete control, 13 to 15 days
[12] = Preemergence, 250 g ai/ha, 0 to 100 scale

In the case of `O=C1CCCC(O)=C1C(=O)c1cnc(-c2cccnc2)n(-c2ccccc2)c1=O` [Compound 113, 5-[(2-hydroxy-6-oxo-1-cyclohexen-1-yl)carbonyl]-3-phenyl-2-(3-pyridinyl)-4(3H)-pyrimidone], the pest or weed control at 125 g/ha ([1]; Chenopodium album, pre-emergence, 125 g ai/ha, scale 0 to 100, 0 no effect, 100 complete control, read-out: Plant response rating, Lambsquarters) is reported as 100%, the “Lambsquarters plant response rating” value ([1]; 250 g ai/ha, 0 to 100 scale) is reported as 100 and the “Crabgrass, Large plant response rating (0 to 100 scale)” value [2, 11] is reported as 90. For the same compound, the pest or weed control at 31 g/ha ([2]; Digitaria sanguinalis, post-emergence, postemergence, scale 0 to 100, 0 is no effect, 100 is complete control, read-out: Plant response rating, Crabgrass, Large) was 85%, the pest or weed control at 125 g/ha ([2]; Digitaria sanguinalis, post-emergence, Postemergence, scale 0 to 100 (0 no effect, 100 complete control), read-out: Plant response rating, Crabgrass, Large) was 95% and the pest or weed control at 250 g/ha ([2]; Digitaria sanguinalis, post-emergence, Postemergence, 250 g ai/ha, scale 0 to 100 (0 no effect, 100 complete control), read-out: Plant response rating, Crabgrass, Large) was 95%. For the same compound, the pest or weed control at 31 g/ha ([2]; Digitaria sanguinalis, pre-emergence, Preemergence, scale 0 to 100 (0 no effect, 100 complete control), read-out: Plant response rating, Crabgrass, Large) was 70%, the pest or weed control at 62 g/ha ([2]; Digitaria sanguinalis, pre-emergence, Preemergence, 62 g ai/ha, scale 0 to 100, 0 no effect, 100 complete control, read-out: Plant response rating, Crabgrass, Large) was 98% and the pest or weed control at 125 g/ha ([2]; Digitaria sanguinalis, pre-emergence, Preemergence, scale 0 to 100, 0 no effect, 100 complete control, read-out: Plant response rating, Crabgrass, Large) was 100%. For the same compound, the “Crabgrass, Large plant response rating” value [2, 12] was 100, the “Pigweed plant response rating (0 to 100 scale)” value [3, 11] was 100 and the pest or weed control at 31 g/ha ([3]; Amaranthus retroflexus, post-emergence, postemergence, scale 0 to 100, 0 is no effect, 100 is complete control, read-out: Plant response rating, Pigweed) was 95%. For the same compound, the pest or weed control at 125 g/ha ([3]; Amaranthus retroflexus, post-emergence, Postemergence, scale 0 to 100 (0 no effect, 100 complete control), read-out: Plant response rating, Pigweed) was 100%, the pest or weed control at 250 g/ha ([3]; Amaranthus retroflexus, post-emergence, Postemergence, 250 g ai/ha, scale 0 to 100 (0 no effect, 100 complete control), read-out: Plant response rating, Pigweed) was 100% and the pest or weed control at 31 g/ha ([3]; Amaranthus retroflexus, pre-emergence, Preemergence, scale 0 to 100 (0 no effect, 100 complete control), read-out: Plant response rating, Pigweed) was 98%. The pest or weed control at 62 g/ha ([3]; Amaranthus retroflexus, pre-emergence, Preemergence, 62 g ai/ha, scale 0 to 100 (0 no effect, 100 complete control), read-out: Plant response rating, Pigweed) was 98%, the pest or weed control at 125 g/ha ([3]; Amaranthus retroflexus, pre-emergence, Preemergence, scale 0 to 100, 0 no effect, 100 complete control, read-out: Plant response rating, Pigweed) was 100% and the “Pigweed plant response rating” value [3, 12] was 100. For the same compound, the “Ragweed plant response rating (0 to 100 scale)” value [4, 11] was 95, the pest or weed control at 125 g/ha ([4]; Ambrosia artemisiifolia, post-emergence, 360 h, Postemergence, scale 0 to 100 (0 no effect, 100 complete control), read-out: Plant response rating, Ragweed) was 98% and the pest or weed control at 250 g/ha ([4]; Ambrosia artemisiifolia, post-emergence, 360 h, Postemergence, 250 g ai/ha, scale 0 to 100 (0 no effect, 100 complete control), read-out: Plant response rating, Ragweed) was 98%. For the same compound, the pest or weed control at 31 g/ha ([4]; Ambrosia artemisiifolia, pre-emergence, 360 h, Preemergence, 31 g ai/ha, scale 0 to 100 (0 no effect, 100 complete control), read-out: Plant response rating, Ragweed) was 55%, the pest or weed control at 62 g/ha ([4]; Ambrosia artemisiifolia, pre-emergence, 360 h, Preemergence, 62 g ai/ha, scale 0 to 100 (0 no effect, 100 complete control), read-out: Plant response rating, Ragweed) was 90% and the pest or weed control at 125 g/ha ([4]; Ambrosia artemisiifolia, pre-emergence, 360 h, Preemergence, scale 0 to 100, 0 no effect, 100 complete control, read-out: Plant response rating, Ragweed) was 95%. The “Ragweed plant response rating” value [4, 12] was 98, the “Soybean plant response rating (0 to 100 scale)” value [5, 11] was 98 and the plant injury at 125 g/ha ([5]; Glycine max, post-emergence, Postemergence, scale 0 to 100 (0 no effect, 100 complete control), read-out: Plant response rating, Soybean) was 98%. For the same compound, the plant injury at 250 g/ha ([5]; Glycine max, post-emergence, Postemergence, 250 g ai/ha, scale 0 to 100 (0 no effect, 100 complete control), read-out: Plant response rating, Soybean) was 98%, the plant injury at 31 g/ha ([5]; Glycine max, pre-emergence, Preemergence, 31 g ai/ha, scale 0 to 100 (0 no effect, 100 complete control), read-out: Plant response rating, Soybean) was 0% and the plant injury at 62 g/ha ([5]; Glycine max, pre-emergence, Preemergence, 62 g ai/ha, scale 0 to 100, 0 no effect, 100 complete control, read-out: Plant response rating, Soybean) was 65%. For the same compound, the plant injury at 125 g/ha ([5]; Glycine max, pre-emergence, Preemergence, scale 0 to 100, 0 no effect, 100 complete control, read-out: Plant response rating, Soybean) was 85%, the “Soybean plant response rating” value [5, 12] was 90 and the “Velvetleaf plant response rating (0 to 100 scale)” value [6, 11] was 95. It also gave a pest or weed control at 125 g/ha ([6]; Abutilon theophrasti, post-emergence, 360 h, Postemergence, scale 0 to 100 (0 no effect, 100 complete control), read-out: Plant response rating, Velvetleaf) of 98%, a pest or weed control at 250 g/ha ([6]; Abutilon theophrasti, post-emergence, 360 h, Postemergence, 250 g ai/ha, scale 0 to 100 (0 no effect, 100 complete control), read-out: Plant response rating, Velvetleaf) of 98% and a pest or weed control at 31 g/ha ([6]; Abutilon theophrasti, pre-emergence, 360 h, Preemergence, 31 g ai/ha, scale 0 to 100 (0 no effect, 100 complete control), read-out: Plant response rating, Velvetleaf) of 80%. The pest or weed control at 62 g/ha ([6]; Abutilon theophrasti, pre-emergence, 360 h, Preemergence, 62 g ai/ha, scale 0 to 100 (0 no effect, 100 complete control), read-out: Plant response rating, Velvetleaf) was 100%, the pest or weed control at 125 g/ha ([6]; Abutilon theophrasti, pre-emergence, 360 h, Preemergence, scale 0 to 100, 0 no effect, 100 complete control, read-out: Plant response rating, Velvetleaf) was 100% and the “Velvetleaf plant response rating” value [6, 12] was 100. For the same compound, the “Wheat plant response rating (0 to 100 scale)” value [7, 11] was 15, the “Wheat plant response rating” value [7, 12] was 10 and the plant injury at 125 g/ha ([7]; Triticum aestivum, post-emergence, Postemergence, scale 0 to 100 (0 no effect, 100 complete control), read-out: Plant response rating, Wheat) was 40%. The plant injury at 31 g/ha ([7]; Triticum aestivum, pre-emergence, Preemergence, 31 g ai/ha, scale 0 to 100 (0 no effect, 100 complete control), read-out: Plant response rating, Wheat) was 0%, the plant injury at 62 g/ha ([7]; Triticum aestivum, pre-emergence, Preemergence, 62 g ai/ha, scale 0 to 100 (0 no effect, 100 complete control), read-out: Plant response rating, Wheat) was 0% and the plant injury at 125 g/ha ([7]; Triticum aestivum, pre-emergence, Preemergence, scale 0 to 100, 0 no effect, 100 complete control, read-out: Plant response rating, Wheat) was 10%. The “Oat, Wild plant response rating (0 to 100 scale)” value [8, 11] was 40, the pest or weed control at 31 g/ha ([8]; Avena fatua, post-emergence, postemergence, scale 0 to 100, 0 is no effect, 100 is complete control, read-out: Plant response rating, Oat, Wild) was 20% and the pest or weed control at 125 g/ha ([8]; Avena fatua, post-emergence, Postemergence, scale 0 to 100 (0 no effect, 100 complete control), read-out: Plant response rating, Oat, Wild) was 45%. The pest or weed control at 250 g/ha ([8]; Avena fatua, post-emergence, Postemergence, 250 g ai/ha, scale 0 to 100 (0 no effect, 100 complete control), read-out: Plant response rating, Oat, Wild) was 85%, the pest or weed control at 31 g/ha ([8]; Avena fatua, pre-emergence, Preemergence, scale 0 to 100 (0 no effect, 100 complete control), read-out: Plant response rating, Oat, Wild) was 0% and the pest or weed control at 62 g/ha ([8]; Avena fatua, pre-emergence, Preemergence, 62 g ai/ha, scale 0 to 100 (0 no effect, 100 complete control), read-out: Plant response rating, Oat, Wild) was 5%. The pest or weed control at 125 g/ha ([8]; Avena fatua, pre-emergence, Preemergence, scale 0 to 100, 0 no effect, 100 complete control, read-out: Plant response rating, Oat, Wild) was 20%, the “Oat, Wild plant response rating” value [8, 12] was 40 and the “Cupgrass, Woolly plant response rating (0 to 100 scale)” value [9, 11] was 85. For the same compound, the pest or weed control at 31 g/ha ([9]; Eriochloa villosa, post-emergence, postemergence, scale 0 to 100, 0 is no effect, 100 is complete control, read-out: Plant response rating, Cupgrass, Woolly) was 85%, the pest or weed control at 125 g/ha ([9]; Eriochloa villosa, post-emergence, Postemergence, scale 0 to 100 (0 no effect, 100 complete control), read-out: Plant response rating, Cupgrass, Woolly) was 95% and the pest or weed control at 250 g/ha ([9]; Eriochloa villosa, post-emergence, Postemergence, 250 g ai/ha, scale 0 to 100 (0 no effect, 100 complete control), read-out: Plant response rating, Cupgrass, Woolly) was 95%. It also gave a pest or weed control at 31 g/ha ([9]; Eriochloa villosa, pre-emergence, Preemergence, scale 0 to 100 (0 no effect, 100 complete control), read-out: Plant response rating, Cupgrass, Woolly) of 5%, a pest or weed control at 62 g/ha ([9]; Eriochloa villosa, pre-emergence, Preemergence, 62 g ai/ha, scale 0 to 100, 0 no effect, 100 complete control, read-out: Plant response rating, Cupgrass, Woolly) of 50% and a pest or weed control at 125 g/ha ([9]; Eriochloa villosa, pre-emergence, Preemergence, scale 0 to 100, 0 no effect, 100 complete control, read-out: Plant response rating, Cupgrass, Woolly) of 85%. For the same compound, the “Cupgrass, Woolly plant response rating” value [9, 12] was 95, the “Nutsedge, Yellow plant response rating (0 to 100 scale)” value [10, 11] was 75 and the pest or weed control at 31 g/ha ([10]; Cyperus, post-emergence, postemergence, scale 0 to 100, 0 is no effect, 100 is complete control, read-out: Plant response rating, Nutsedge, Yellow) was 65%. The pest or weed control at 125 g/ha ([10]; Cyperus, post-emergence, Postemergence, scale 0 to 100 (0 no effect, 100 complete control), read-out: Plant response rating, Nutsedge, Yellow) was 75%, the pest or weed control at 250 g/ha ([10]; Cyperus, post-emergence, Postemergence, 250 g ai/ha, scale 0 to 100 (0 no effect, 100 complete control), read-out: Plant response rating, Nutsedge, Yellow) was 75% and the pest or weed control at 31 g/ha ([10]; Cyperus, pre-emergence, Preemergence, scale 0 to 100 (0 no effect, 100 complete control), read-out: Plant response rating, Nutsedge, Yellow) was 65%. For the same compound, the pest or weed control at 62 g/ha ([10]; Cyperus, pre-emergence, Preemergence, 62 g ai/ha, scale 0 to 100 (0 no effect, 100 complete control), read-out: Plant response rating, Nutsedge, Yellow) was 80%, the pest or weed control at 125 g/ha ([10]; Cyperus, pre-emergence, Preemergence, scale 0 to 100, 0 no effect, 100 complete control, read-out: Plant response rating, Nutsedge, Yellow) was 90% and the “Nutsedge, Yellow plant response rating” value [10, 12] was 90.
